Measured values reported in US20220105082A1, “NEW FORMULATIONS CONTAINING LEUKOTRIENE RECEPTOR ANTAGONISTS” (JIANGYIN MUCOCARE PHARMACEUTICAL CO., LTD., priority 2019, published 2022).

Experiments:
BALB/c mice = assay: Mouse ear swelling model (xylene induced); type: in vivo; conditions: cream 5 mg/g, 500 μg/mouse on right ear, 40 minutes
Description: 35 healthy male BALB/c mice of 6-8 weeks of age and average body weight of 18-25 g supplied by Changzhou Cvens Experimental Animal Co. Ltd. were housed and cared for about for 1 week prior to the experiment. The housing temperature was 25-27° C. with 74% humidity, with alternating 12 hour periods of light and darkness, and free access to food and water. The mice were randomly divided into 4 groups as described in Table 1 below, with 5 mice in each group.
The left ear of each mouse was used as autologous control. 20 μL of xylene (Shanghai Aladdin Bio-Chem Technology Co., Ltd., Shanghai, China) was applied to the right ear of each mouse, both inside and outside. The ear started to swell in about 4 minutes. Then, different amounts of each study treatments or vehicles (as described in Table 1 below) were applied to the right ears in each group. The mice were put back into their cages.
The mice were sacrificed by cervical dislocation after 40 minutes. The left and right ears were cut off. A skin pouch (Electron Microscopy Sciences, Hatfield, USA) with diameter of 8 mm was used to take a piece of ear from the same site of both ears. The weights were recorded the weights and the swelling rates were calculated as follows:
Swelling rate=(right ear weight−left ear weight)/left ear weight×100%

SD rats = assay: Idiopathic pulmonary fibrosis (IPF) model, bleomycin-induced; type: in vivo, rat; conditions: pirfenidone 120 mg/kg intragastric, 28 days
Description: 50 Adult SD rats (Zhejiang Experimental Animal Center (Animal Production License Number: SCXK (Zhejiang, Chi-00, half male and half female were kept at 21-26° C. with 40-70% relative humidity, with free access to food and water.
After 7 days of adaptive feeding, the rats were randomly divided into 5 groups: sham operation group, idiopathic pulmonary fibrosis model group, Monte gavage administrating group, Monte inhalation administrating group and pirfenidone control group.
The rats were anaesthetized and placed on an operating table in the supine position, exposing the trachea. 150 μL of Bleomycin (Bleomycin Hydrochloride for Injection, Zhejiang Hisun Pharmaceutical Co. Ltd, China) in saline solution was injected into the trachea through the gap between the tracheal cartilage at 5 mg/kg. (The sham-operation group were given an equal volume of normal saline.)
The rats were lifted vertically after administration and were rotated to allow the drug to evenly disperse. Once the rats recovered, after approximately 7 days, they were administrated different drugs according to Table 1 below. […]

| SMILES | xylene induced swelling (BALB/c mice) | HYP (SD rats; lung) [μg/g wet weight] | IL-10 (SD rats; tissue) [pg/mg protein] |
| --- | --- | --- | --- |
| COc1cc(C(=O)NS(=O)(=O)c2ccccc2C)ccc1Cc1cn(C)c2ccc(NC(=O)OC3CCCC3)cc12 [zafirlukast] | significantly reduce |  |  |
| Cc1ccc(=O)n(-c2ccccc2)c1 [Postitive Control, pirfenidone] |  | 755.49 ± 66.64 | 43.52 ± 4.30 |
